ChEMBL document CHEMBL1201862, “PubChem BioAssay data set” (2004)
Activity calls are given as the source filed them.

What was measured:
[1] = Trypanosoma cruzi growth suppression in host cells – NIH3T3 host cells, beta-gal luminescence, confirmation (AID 2044); format: functional, cell-based;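 note: intracellular parasites grown in NIH/3T3 mouse fibroblasts as host cells; luminescent beta-galactosidase reporter signal from transgenic T. cruzi replicating inside host cells; inhibitors lower the luminescence signal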
[2] = NIH3T3 cell viability loss – ATP luminescence, mouse fibroblasts, counter-screen, dose response (AID 2010); format: functional, cell-based;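 note: cells exposed to compound for about 90 hours before reading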
[3] = viability loss in THP-1 monocytes – THP-1 cells, cytotoxicity control for Vif-APOBEC3G degradation inhibitor project, dose response (AID 1117359); format: functional; conditions: THP-1
[4] = target: T1, Sentrin-specific protease 7 (Homo sapiens, UniProt Q9BQF6); format: functional;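 note: Luminescence-based dose-response confirmation of ultra-high-throughput screening hits, measuring inhibition of SENP7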
T1 sequence (Q9BQF6 whole entry): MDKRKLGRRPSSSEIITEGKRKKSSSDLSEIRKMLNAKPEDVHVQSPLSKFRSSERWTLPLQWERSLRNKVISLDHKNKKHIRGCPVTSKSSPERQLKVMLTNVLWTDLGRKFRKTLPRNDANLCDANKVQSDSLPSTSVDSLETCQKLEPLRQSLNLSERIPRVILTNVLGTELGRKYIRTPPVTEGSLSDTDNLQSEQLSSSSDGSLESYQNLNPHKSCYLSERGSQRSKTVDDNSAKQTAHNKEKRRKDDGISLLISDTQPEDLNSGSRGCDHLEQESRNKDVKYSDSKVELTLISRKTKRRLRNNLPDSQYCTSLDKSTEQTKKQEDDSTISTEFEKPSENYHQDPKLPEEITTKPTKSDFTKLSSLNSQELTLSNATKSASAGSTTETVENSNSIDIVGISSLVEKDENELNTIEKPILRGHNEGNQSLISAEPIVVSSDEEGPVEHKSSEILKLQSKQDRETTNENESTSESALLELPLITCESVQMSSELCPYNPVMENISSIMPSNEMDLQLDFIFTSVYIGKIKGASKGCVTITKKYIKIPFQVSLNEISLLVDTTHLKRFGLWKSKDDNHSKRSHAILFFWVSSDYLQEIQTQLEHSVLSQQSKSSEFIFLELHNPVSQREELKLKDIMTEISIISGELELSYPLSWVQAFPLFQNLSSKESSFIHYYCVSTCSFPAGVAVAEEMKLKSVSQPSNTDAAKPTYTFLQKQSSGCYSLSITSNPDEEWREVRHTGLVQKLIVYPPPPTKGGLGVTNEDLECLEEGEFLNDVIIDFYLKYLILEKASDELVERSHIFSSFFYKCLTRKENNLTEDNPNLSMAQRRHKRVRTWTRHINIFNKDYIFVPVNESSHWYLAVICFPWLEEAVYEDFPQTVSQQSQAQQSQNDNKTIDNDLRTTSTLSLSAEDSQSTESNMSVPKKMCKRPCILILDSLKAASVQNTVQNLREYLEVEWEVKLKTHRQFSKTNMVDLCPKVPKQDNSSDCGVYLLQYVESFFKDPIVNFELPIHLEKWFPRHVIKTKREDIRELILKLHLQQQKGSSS

[5] = target: T2, Sentrin-specific protease 6 (Homo sapiens, UniProt Q9GZR1); format: functional;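 note: Luminescence-based dose-response confirmatory assay of SENP6 inhibition, following up an ultra-high-throughput screen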
T2 sequence (Q9GZR1 whole entry): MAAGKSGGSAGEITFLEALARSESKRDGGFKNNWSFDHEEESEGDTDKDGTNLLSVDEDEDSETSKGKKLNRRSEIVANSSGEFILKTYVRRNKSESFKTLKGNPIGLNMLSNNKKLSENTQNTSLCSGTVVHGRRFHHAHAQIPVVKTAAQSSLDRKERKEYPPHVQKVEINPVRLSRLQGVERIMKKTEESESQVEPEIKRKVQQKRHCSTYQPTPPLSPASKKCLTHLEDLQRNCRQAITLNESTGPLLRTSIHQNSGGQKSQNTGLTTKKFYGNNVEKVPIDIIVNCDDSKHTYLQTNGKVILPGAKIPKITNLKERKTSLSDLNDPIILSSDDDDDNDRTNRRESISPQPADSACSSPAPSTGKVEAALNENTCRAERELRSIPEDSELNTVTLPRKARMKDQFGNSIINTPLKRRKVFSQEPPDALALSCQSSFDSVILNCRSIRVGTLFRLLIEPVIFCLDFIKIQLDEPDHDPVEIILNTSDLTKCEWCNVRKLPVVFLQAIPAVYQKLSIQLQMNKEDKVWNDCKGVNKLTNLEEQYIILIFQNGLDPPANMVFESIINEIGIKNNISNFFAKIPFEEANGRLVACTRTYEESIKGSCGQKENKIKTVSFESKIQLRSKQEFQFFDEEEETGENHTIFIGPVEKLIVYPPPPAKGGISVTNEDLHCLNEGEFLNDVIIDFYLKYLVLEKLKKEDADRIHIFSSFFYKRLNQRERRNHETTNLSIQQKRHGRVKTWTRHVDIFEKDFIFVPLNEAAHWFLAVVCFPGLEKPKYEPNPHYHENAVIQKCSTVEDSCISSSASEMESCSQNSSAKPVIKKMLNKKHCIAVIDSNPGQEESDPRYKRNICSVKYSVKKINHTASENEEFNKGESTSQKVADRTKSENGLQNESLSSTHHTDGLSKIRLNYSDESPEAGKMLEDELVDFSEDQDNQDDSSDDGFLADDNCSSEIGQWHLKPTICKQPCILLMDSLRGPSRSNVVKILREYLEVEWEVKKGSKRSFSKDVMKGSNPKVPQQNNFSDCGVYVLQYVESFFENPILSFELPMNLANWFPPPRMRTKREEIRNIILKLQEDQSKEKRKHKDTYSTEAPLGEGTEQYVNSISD

[6] = target: T3, Sentrin-specific protease 8 (Homo sapiens, UniProt Q96LD8); format: functional;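 note: luminescence read-out of SENP8 inhibition, dose-response confirmation following an ultra-high-throughput screen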
T3 sequence (Q96LD8 whole entry): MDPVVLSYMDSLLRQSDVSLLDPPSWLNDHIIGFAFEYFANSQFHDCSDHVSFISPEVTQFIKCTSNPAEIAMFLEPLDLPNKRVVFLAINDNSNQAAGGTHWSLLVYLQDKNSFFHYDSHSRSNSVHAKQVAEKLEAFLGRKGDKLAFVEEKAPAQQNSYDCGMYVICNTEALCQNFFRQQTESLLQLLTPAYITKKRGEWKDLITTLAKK

[7] = tested on: HEK293; assay: inhibition of NOD1-driven NF-kB reporter – cell-based, luminescence, uHTS, primary screen (AID 1578); format: functional; conditions: Homo sapiens
[8] = tested on: HEK293; assay: cells; format: functional, cell-based; conditions: Homo sapiens
[9] = tested on: HEK293; assay: cells; format: functional, cell-based; conditions: Homo sapiens; remark: listed apart in the source
[10] = tested on: HEK293; assay: NOD2 signaling inhibitors in MDP-stimulated cells, cell-based, uHTS, luminescence (AID 2001); format: functional; conditions: Homo sapiens
[11] = blockers of HIV-1 envelope-mediated cell-cell fusion – cherry-pick, dose response (AID 652057); format: functional, cell-based
[12] = viability loss in CEM21 cells – cell-based, CellTiter-Glo luminescence, cherry-picked, cytotoxicity control for viral fusion inhibitor project, dose response (AID 652042); format: functional;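 note: potency for signal decrease meaning cytotoxicity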
[13] = blockers of HIV-1 ZM109 envelope-driven cell-cell fusion – HeLa effector, CEM target cells, luciferase, cherry-pick, dose response (AID 652058); format: functional, cell-based;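 note: luciferase signal from HIV-1 Env mediated cell-cell fusion of effector and target cells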
[14] = HIV-1 AD8 envelope cell-cell fusion blockers – cherry-pick, dose response (AID 652062); format: functional, cell-based;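 note: luciferase signal from cell-cell fusion driven by HIV-1 clade B AD8 Env; potency is for inhibitors of fusion seen as a drop in luminescence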
[15] = activation of miR-122 Renilla sensor silencing – cell-based, Huh7 psiCHECK-miR122, Renilla luciferase, cherry-picked, dose response (AID 651956); format: functional;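 note: huh7 hepatoma cells stably carrying a psiCHECK-2 miR-122 sensor plasmid; renilla luciferase signal reporting endogenous miR-122 activity after 48 h compound exposure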
[16] = target: Paired box protein Pax-8 (Homo sapiens, UniProt Q06710); assay: PAX8 transcriptional activity inhibition in RMG-I – RMG-I cells, luciferase, cherry-pick, dose response (AID 687027); format: functional, cell-based;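 note: luciferase reporter driven by Pax8 target thyroperoxidase promoter measured by SteadyGlo luminescence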
[17] = target: Dual specificity tyrosine-phosphorylation-regulated kinase 1A (Rattus norvegicus, UniProt Q63470); format: biochemical, Homo sapiens

Chain of Paired box protein Pax-8 (Q06710 whole entry): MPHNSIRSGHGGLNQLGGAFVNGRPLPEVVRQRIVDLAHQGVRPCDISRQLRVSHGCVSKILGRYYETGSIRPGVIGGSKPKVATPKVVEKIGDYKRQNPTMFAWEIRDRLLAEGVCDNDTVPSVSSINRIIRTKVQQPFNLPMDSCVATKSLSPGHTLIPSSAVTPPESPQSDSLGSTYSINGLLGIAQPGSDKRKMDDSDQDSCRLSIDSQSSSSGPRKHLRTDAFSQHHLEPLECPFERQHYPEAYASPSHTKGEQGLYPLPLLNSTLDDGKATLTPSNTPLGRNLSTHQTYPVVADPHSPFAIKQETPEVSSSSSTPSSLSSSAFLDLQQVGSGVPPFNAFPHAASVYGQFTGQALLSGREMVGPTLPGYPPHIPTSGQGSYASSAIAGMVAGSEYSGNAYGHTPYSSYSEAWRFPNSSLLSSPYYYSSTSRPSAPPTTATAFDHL

With `CCN1CCN(c2ccc(S(=O)(=O)N3CCCCC3)cc2NC(=O)Cc2ccc(Cl)c(Cl)c2)CC1` the EC50 [1] was 0.162 µM (active), the EC50 [2] was 6.52 µM (active) and the CC50 [3] was 21.2 µM (active).

In the case of `CC(C)(C)c1ccc(C(=O)NCCOc2ccccc2)cc1`, the IC50 [4] is reported as 5.62 µM (active), the IC50 [5] is reported as > 100 µM (inactive) and the IC50 [6] is reported as > 100 µM (inactive).

In the case of `Cc1c(NS(=O)(=O)c2ccc3c(c2)OCCO3)cccc1-c1nc2cccnc2s1`, the EC50 [7] is reported as 4.14 µM (active), the IC50 [8] is reported as 5.27 µM (active) and the IC50 [9] is reported as 10.9 µM (active). The IC50 [10] was 4.02 µM (active).

With `CCC(=O)Nc1ccc2c(c1)OC[C@H](C)N(CC1CCCCC1)C[C@H](C)[C@@H](OC)CN(C)C2=O` the AC50 [11] was 2.93 µM (active), the AC50 [12] was 55.6 µM (active) and the AC50 [13] was 2.21 µM (active). For the same compound, the AC50 [14] was 4.48 µM (active).

For `C[C@@H]1CN([C@@H](C)CO)C(=O)Cc2cc(NS(=O)(=O)c3ccc(F)cc3)ccc2O[C@H]1CN(C)Cc1ccc(Oc2ccccc2)cc1`, the AC50 [15] was 1.96 µM (active) and the AC50 [16] was 5.32 µM (active).

For `Oc1ccnc2ccc(Cl)cc12`, the AC50 [17] was 13.6 µM (active).
